Laboratory results taken from US20250249001A1, “METHODS OF TREATING SUBSTANCE USE DISORDER WITH 4-(3-CYANOPHENYL)-6-PYRIDINYLPYRIMIDINE MGLU5 NEGATIVE ALLOSTERIC MODULATORS” (Tempero Bio, Inc., priority 2022, published 2025).
Read-outs that look alike come from different tables or passages of the source.

Assays:
[1] = tested on: cocaine reinstatement in rats; experiment: Yohimbine-induced reinstatement of cocaine self-administration (Stage II); assay type: in vivo, Sprague-Dawley rats; settings: 3 mg/kg co-administered with yohimbine 2 mg/kg; Ps<0.001
[2] = tested on: cocaine reinstatement in rats; experiment: as above; assay type: in vivo, Sprague-Dawley rats; settings: for cocaine reinstatement, Mean Diff., Last Day of Cocaine Retraining vs treatment - Yohimbine / cocaine reinstatement, Mean Diff., Last Day of Extinction vs. treatment - Yohimbine / cocaine reinstatement, Mean Diff., Saline - Yohimbine 2 mg/kg vs. treatment - Yohimbine: 3 mg/kg, thirty min before yohimbine 2 mg/kg
Protocol: After completion of Stage I, the rats were re-trained with cocaine for one week to ensure stable baseline. And then the rats underwent a 6-day extinction training procedure in which only saline infusion occurred when active lever was pressed. Meanwhile, the rats were divided into 3 roughly even groups for pharmacological stressor-induced reinstatement—All rats received one injection of alpha-2 adrenergic antagonist yohimbine (2 mg/kg) and then placed into the training box immediately). Thirty min before yohimbine treatment, one group of rats received saline, another group received MTEP 3 mg/kg injection, and the 3rd group received Compound 1 at 3 mg/kg.
Yohimbine-induced reinstatement was re-tested two more times in the same rats 3 days and 6 days after the first test, under continuous extinction procedure (There were 2 more days of extinction training between the 1st and 2nd reinstatement test, and between the 2nd and 3rd reinstatement test). Using the 3×3 within subject design, each given animal goes through all three treatments (saline, MTEP and Compound 1) across the three rounds of test.
(§1) A one-way mixed-effects model (REML) of ANOVA followed by Dunnett's post hoc tests were used to analyze efficacy of Compound 1 and MTEP on cocaine self-administration in stages I (The repeated measure ANOVA was not totally applicable due to a few outlier data points, which are removed), and one-way mixed-effects model (REML) of ANOVA followed by Tukey's post hoc tests were used in Stage II. An effect was considered significant if P<0.05. Data were represented as the mean and standard error to the mean (s.e.m).
Statistical outliers which exceeded mean +/− (2× standard deviation) of the group were removed from the analysis. Also, for reinstatement, the extinction time was shortened (from 9 days plus extension as option to 6 days). In the present study, 3 rounds of reinstatement tests were performed, and we wished to maintain the reinstatement power, thus we cut extinction duration. Accordingly, we loosened the extinction criterion from 6 or less infusions to 9 or less infusions during the last extinction session. With this criterion, 17 out of 21 rats were eligible in drug test in Stage II.

[3] = tested on: cocaine-induced CPP in male SD rats; assay type: in vivo, Sprague Dawley rats; settings: for time difference (drug-paired vs saline-paired) vs Cocaine-Saline group / time spent in the drug-paired compartment vs Cocaine-Saline group: day 10
Protocol: Animals: Male Sprague Dawley rats (Envigo, IN, 275-299 g) were group housed upon arrival (2 per cage). All rats were examined and handled to assure adequate health and suitability. During the study, a 12/12 light/dark cycle was maintained (lights switched on at 7:00 am). The room temperature was maintained between […] and 23° C. with a relative humidity maintained around 50%. Chow (LabDiet #5001) and water were provided ad libitum for the duration of the study. The test was performed during the animal's light cycle phase.
Cocaine (10 mg/kg) was dissolved in saline and injected IP at a dose volume of 1 ml/kg. Cocaine was administered on training days 3, 5, 7 and 9 immediately prior to training.
3-((2-Methyl-4-thiazolyl)ethynyl)pyridine (MTEP, 3 mg/kg), was dissolved in saline and injected IP on day 10 (bias test) at a dose volume of 1 ml/kg 30 minutes prior to testing.
Compound 1 (1, 3 and 10 mg/kg) was formulated in 10% Solutol HS15 and 90% (10% aqueous 2-hydroxypropyl-β-cyclodextrin) and injected IP on day 10 (bias test) at a dose volume of 2 ml/kg. Compound 1 was administered 30 minutes prior to testing.
The chamber used in this study contained two compartments [(60 cm (L)×40 cm (W)×24 cm (H)]. The compartment used for each animal and drug pairing was assigned and counterbalanced in advance and adjusted as necessary in the rebalancing procedure after day 1 (see details below). Within the chamber, visual and physical features were used to create the two distinct compartments. For example, one compartment may have a flat plastic floor with white stripes and the other may have a textured floor and black stripes. The chambers were cleaned with 70% alcohol in between runs.
Testing sessions were recorded on days 1 and 10 to determine time spent (seconds) in each chamber.
Day 1 Pre-conditioning/Habituation: Animals are allowed to explore the entire testing chamber freely for 20 min. Animals that display a strong preference for one compartment (>75% time spent in one compartment) are excluded.
Rebalancing Procedure: Animals are rebalanced following day 1 scoring if the difference between groups for time spent in one compartment is greater than 15%.
Days 2-9 Conditioning: All animals are treated with saline on days 2, 4, 6, and 8 and with cocaine or saline on days 3, 5, 7, and 9 depending on their assigned group. Animals are confined to their assigned compartment (saline- or cocaine-paired compartment) for 20 minutes following dosing.
Day 10 Post-conditioning bias test: Animals are dosed once with either saline, MTEP or Compound 1 (1, 3 and 10 mg/kg) according to their assigned. Following dosing, animals are allowed to explore the testing chamber freely for 20 minutes with the compartment dividing door open. Their activity exploring the chamber is recorded for analysis.
Statistical Analysis: Statistical analysis was conducted using GraphPad Prism 9. Scorers blinded to the treatment groups scored the amount of time each animal spent exploring each chamber on days 1 and 10. For bias test data, a one-way analysis of variance (ANOVA) followed by Dunnett's post hoc test was used. Significance was set at p<0.05 and values exceeding two standard deviations of the mean were considered statistical outliers and were excluded from the analysis. Additionally, if an animal spent >85% or <15% of the time in one compartment even without any obvious signs of sedation or locomotor dysfunction, they were excluded from the analysis.

[4] = tested on: oxycodone reinstatement in rats; experiment: Yohimbine-induced reinstatement of oxycodone self-administration; assay type: in vivo, Sprague-Dawley rats; settings: 3 mg/kg thirty minutes before yohimbine 2 mg/kg; Ps<0.001
Protocol: Evaluation of Compound 1 on Oxycodone Reinstatement. After completion of testing rats were re-trained with oxycodone for one week to ensure stable baseline. Rats then underwent a 6-day extinction where only saline infusion occurred when active lever was pressed. Meanwhile, the rats were divided into 3 groups: All rats received one injection of alpha-2 adrenergic antagonist yohimbine (2 mg/kg) with 0 min pretreatment (rats were placed into the training box immediately). Thirty minutes before yohimbine treatment, one group of rats received saline, another group received MTEP 3 mg/kg injection, and the 3rd group received Compound 1 (3 mg/kg). Yohimbine-induced reinstatement was re-tested two more times in the same rats 3 days and 6 days after the first test, under continuous extinction procedure.
as §1, with “Statistical Analysis. Prism 9.40 software package Version 9 was used for statistical analysis and graphing. The number of active lever responses were recorded during each session and compared between treatment groups. A one-way” for “A one-way”, “MTEP on oxycodone self-administration in” for “MTEP on cocaine self-administration in”, “mean (s.e.m). Statistical outliers which exceeded mean +/− (2× standard deviation) of the group were removed from the analysis.” for “mean (s.e.m).”

[5] = 1 mg/kg IP 30 minutes prior to day 10 bias test
[6] = MTEP 3 mg/kg IP 30 minutes prior to day 10 bias test

Compound | yohimbine-induced cocaine reinstatement [1] | cocaine reinstatement, Mean Diff., Last Day of Cocaine Retraining vs treatment - Yohimbine [2] | cocaine reinstatement, Mean Diff., Last Day of Extinction vs. treatment - Yohimbine [2] | cocaine reinstatement, Mean Diff., Saline - Yohimbine 2 mg/kg vs. treatment - Yohimbine [2] | cocaine reinstatement, Mean Diff., MTEP 3 mg/kg - Yohimbine vs. Compound 1 (3 mg/kg) - Yohimbine ([2]; both 3 mg/kg before yohimbine 2 mg/kg) | Percent time in compound-paired compartment, Mean Diff., Cocaine - Saline vs. Cocaine - Compound 1 (1 mg/kg) [3, 5] | Preference Scores, Mean Diff., Cocaine - Saline vs. Cocaine - Compound 1 (1 mg/kg) [3, 5] | time difference (drug-paired vs saline-paired) vs Cocaine-Saline group ([3]; 1 mg/kg IP, p<0.01) | time spent in the drug-paired compartment vs Cocaine-Saline group ([3]; 1 mg/kg IP, p<0.01) | yohimbine-induced oxycodone reinstatement vs Vehicle-Yohimbine group [4] | time difference (drug-paired vs saline-paired) vs Cocaine-Saline group ([3]; 3 mg/kg IP, p<0.05) | time spent in the drug-paired compartment vs Cocaine-Saline group ([3]; 3 mg/kg IP, p<0.05) | Percent time in compound-paired compartment, Mean Diff., Cocaine - Saline vs. Cocaine - MTEP [3, 6] | Preference Scores, Mean Diff., Cocaine - Saline vs. Cocaine - MTEP [3, 6]
N#Cc1cc(Cl)cc(-c2cc(-c3ccc(F)cn3)ncn2)c1 [Compound 1, 3-chloro-5-[6-(5-fluoropyridin-2-yl)pyrimidin-4-yl]benzonitrile] | almost entirely prevented cocaine reinstatement | 26.57 | 5.749 | 20.28 | −0.1333 | 19.16% | 459.9 s | significantly lower time difference | significantly less time in the drug-paired compartment | attenuated yohimbine-induced oxycodone reinstatement |  |  |  | 
Cc1nc(C#Cc2cccnc2)cs1 [MTEP, 3-((2-Methyl-4-thiazolyl)ethynyl)pyridine] | almost entirely prevented cocaine reinstatement | 26.71 | 5.882 | 20.41 |  |  |  |  |  | attenuated yohimbine-induced oxycodone reinstatement | significantly lower time difference | significantly less time in the drug-paired compartment | 18.73% | 449.6 s
